Measurements from ChEMBL document CHEMBL5465560, “Selectivity Literature for EUbOPEN Chemogenomic Library” (2024).
Each block holds one compound with its values, some of them ahead of it.

Assays:
[1] = target: Cyclin-dependent kinase 2 (Homo sapiens, UniProt P24941); assay: Selectivity interaction (Ambit KINOMEscan and KiNATiv profiling in Jurkat cells) EUB0000090b CDK2; format: cell-based; settings: at 1 µM
[2] = target: T1, Muscle, skeletal receptor tyrosine-protein kinase (Homo sapiens) (UniProt O15146); assay: Selectivity interaction (Ambit KINOMEscan and KiNATiv profiling in Jurkat cells) EUB0000090b MUSK; format: cell-based; settings: at 1 µM
T1 sequence (whole entry): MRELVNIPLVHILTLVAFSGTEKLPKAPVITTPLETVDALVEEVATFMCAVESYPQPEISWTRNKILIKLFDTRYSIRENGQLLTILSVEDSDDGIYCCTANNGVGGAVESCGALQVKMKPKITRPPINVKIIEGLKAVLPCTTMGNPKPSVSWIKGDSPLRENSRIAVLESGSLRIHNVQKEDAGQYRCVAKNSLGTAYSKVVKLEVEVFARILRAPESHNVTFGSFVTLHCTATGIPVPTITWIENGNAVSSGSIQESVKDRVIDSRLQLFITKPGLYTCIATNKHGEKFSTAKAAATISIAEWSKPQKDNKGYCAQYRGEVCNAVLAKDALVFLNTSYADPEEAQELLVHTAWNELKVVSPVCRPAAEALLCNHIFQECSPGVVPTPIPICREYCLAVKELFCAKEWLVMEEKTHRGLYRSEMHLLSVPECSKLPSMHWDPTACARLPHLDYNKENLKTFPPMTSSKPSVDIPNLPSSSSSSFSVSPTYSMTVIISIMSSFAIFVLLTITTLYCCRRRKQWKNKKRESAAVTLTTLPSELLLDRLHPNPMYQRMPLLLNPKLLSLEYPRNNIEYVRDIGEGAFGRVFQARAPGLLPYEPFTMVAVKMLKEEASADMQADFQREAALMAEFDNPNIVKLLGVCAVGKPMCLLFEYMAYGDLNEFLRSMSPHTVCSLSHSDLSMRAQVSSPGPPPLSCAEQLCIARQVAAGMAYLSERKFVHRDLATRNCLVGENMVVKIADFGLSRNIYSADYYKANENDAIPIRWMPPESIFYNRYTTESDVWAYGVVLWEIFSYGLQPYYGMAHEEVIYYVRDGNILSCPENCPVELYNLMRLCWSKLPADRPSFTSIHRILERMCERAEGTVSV

[3] = target: Mitogen-activated protein kinase kinase kinase 14 (Homo sapiens) (UniProt Q99558); assay: Selectivity interaction (Ambit KINOMEscan and KiNATiv profiling in Jurkat cells) EUB0000090b MAP3K14; format: cell-based; settings: at 1 µM
[4] = target: 5-hydroxytryptamine receptor 6 (Homo sapiens) (UniProt P50406); assay: Selectivity interaction (GPCR panel (PDSP screen)) EUB0001079a HTR6; settings: at 10 µM
[5] = target: T2, Serine/threonine-protein kinase NLK (Homo sapiens) (UniProt Q9UBE8); assay: Selectivity interaction (KinomeScan (DiscoverX)) EUB0000607a NLK; settings: at 10 µM
T2 sequence (whole entry): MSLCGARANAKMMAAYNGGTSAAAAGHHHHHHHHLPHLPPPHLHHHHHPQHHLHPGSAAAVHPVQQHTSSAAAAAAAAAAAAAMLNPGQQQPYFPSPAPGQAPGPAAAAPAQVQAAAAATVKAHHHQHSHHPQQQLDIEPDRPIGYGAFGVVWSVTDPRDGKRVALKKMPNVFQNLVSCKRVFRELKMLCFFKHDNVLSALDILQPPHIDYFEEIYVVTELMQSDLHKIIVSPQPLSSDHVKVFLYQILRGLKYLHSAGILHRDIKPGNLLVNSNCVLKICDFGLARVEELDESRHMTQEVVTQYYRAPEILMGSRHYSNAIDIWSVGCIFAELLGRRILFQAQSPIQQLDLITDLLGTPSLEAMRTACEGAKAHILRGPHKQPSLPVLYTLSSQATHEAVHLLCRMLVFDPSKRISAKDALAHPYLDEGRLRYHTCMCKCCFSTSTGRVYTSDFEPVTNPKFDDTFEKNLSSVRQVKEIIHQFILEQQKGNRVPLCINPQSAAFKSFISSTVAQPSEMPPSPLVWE

[6] = target: Serine/threonine-protein kinase Nek7 (Homo sapiens) (UniProt Q8TDX7); assay: Selectivity interaction (ActivX KiNativ screen (kinase selectivity in THP-1 cell lysates)) EUB0000639a NEK7; format: subcellular; settings: lysate, at 1 µM
[7] = target: SRSF protein kinase 1 (Homo sapiens, UniProt Q96SB4); assay: Selectivity interaction (KinomeScan (DiscoverX)) EUB0000229b SRPK1; settings: at 10 µM
[8] = target: Bone morphogenetic protein receptor type-1A (Homo sapiens, UniProt P36894); assay: Selectivity interaction (KinomeScan (DiscoverX)) EUB0001049a BMPR1A; settings: at 1 µM
[9] = target: T3, Receptor-type tyrosine-protein kinase FLT3 (Homo sapiens, UniProt P36888); assay: Selectivity interaction (Kinase panel (Eurofins, enzymatic assay)) EUB0000311b FLT3
T3 sequence (P36888 whole entry): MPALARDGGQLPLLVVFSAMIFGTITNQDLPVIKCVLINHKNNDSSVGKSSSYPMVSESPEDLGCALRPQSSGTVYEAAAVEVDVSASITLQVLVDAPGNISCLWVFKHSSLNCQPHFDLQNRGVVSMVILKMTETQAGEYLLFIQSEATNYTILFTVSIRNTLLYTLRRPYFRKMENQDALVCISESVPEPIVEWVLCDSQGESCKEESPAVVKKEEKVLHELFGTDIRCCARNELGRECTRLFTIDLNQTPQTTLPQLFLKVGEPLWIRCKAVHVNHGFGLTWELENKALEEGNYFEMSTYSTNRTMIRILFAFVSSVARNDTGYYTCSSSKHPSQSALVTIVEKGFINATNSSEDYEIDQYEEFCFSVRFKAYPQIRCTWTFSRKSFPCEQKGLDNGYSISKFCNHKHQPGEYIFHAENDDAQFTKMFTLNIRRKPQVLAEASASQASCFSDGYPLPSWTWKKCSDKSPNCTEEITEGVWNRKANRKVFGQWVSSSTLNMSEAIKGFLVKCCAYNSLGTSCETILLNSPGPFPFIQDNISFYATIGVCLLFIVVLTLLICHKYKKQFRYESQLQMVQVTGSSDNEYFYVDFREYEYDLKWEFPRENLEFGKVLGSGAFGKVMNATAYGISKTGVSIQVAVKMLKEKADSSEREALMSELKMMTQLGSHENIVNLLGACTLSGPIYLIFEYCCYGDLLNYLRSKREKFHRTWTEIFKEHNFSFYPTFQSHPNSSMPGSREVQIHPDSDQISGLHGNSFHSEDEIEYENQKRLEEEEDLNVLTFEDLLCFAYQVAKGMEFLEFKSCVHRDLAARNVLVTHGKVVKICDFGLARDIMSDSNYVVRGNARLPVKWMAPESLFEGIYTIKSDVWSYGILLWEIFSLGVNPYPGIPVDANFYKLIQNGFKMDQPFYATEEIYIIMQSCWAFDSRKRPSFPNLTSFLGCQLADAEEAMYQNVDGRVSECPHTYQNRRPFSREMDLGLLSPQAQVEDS

Chain of Bone morphogenetic protein receptor type-1A (P36894 whole entry): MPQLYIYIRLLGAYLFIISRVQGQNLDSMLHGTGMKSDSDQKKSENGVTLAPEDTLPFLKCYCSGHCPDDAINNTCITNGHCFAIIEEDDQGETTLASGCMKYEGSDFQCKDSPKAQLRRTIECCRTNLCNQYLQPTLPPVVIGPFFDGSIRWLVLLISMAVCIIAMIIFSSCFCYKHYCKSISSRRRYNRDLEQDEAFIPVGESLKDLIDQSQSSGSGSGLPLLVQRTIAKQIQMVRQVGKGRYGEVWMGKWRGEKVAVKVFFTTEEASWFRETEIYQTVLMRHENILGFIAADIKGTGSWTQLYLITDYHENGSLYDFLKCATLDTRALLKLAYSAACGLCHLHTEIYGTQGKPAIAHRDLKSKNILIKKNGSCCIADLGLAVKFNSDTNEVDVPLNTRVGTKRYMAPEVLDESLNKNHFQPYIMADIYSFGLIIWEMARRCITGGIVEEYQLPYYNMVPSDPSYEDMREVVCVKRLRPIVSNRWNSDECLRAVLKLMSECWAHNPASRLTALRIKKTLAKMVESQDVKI
Chain of SRSF protein kinase 1 (Q96SB4 whole entry): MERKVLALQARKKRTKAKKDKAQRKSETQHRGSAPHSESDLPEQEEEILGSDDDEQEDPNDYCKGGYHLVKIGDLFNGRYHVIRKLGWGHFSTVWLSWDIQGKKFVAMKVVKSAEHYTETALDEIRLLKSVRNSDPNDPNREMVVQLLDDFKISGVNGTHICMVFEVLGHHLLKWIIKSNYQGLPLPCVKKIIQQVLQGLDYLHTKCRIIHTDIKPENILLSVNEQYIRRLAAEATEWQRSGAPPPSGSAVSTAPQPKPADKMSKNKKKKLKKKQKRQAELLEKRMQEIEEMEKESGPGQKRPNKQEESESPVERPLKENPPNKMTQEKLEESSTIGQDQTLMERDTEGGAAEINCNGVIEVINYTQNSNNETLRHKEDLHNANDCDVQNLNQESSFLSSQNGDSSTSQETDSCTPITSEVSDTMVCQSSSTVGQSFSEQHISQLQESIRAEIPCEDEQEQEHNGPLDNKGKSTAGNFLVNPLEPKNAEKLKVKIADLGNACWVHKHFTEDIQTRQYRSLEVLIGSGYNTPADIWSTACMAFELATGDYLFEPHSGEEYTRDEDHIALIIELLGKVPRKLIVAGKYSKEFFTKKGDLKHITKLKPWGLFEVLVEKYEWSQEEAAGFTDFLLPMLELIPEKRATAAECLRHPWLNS
Chain of 5-hydroxytryptamine receptor 6 (Homo sapiens) (P50406 whole entry): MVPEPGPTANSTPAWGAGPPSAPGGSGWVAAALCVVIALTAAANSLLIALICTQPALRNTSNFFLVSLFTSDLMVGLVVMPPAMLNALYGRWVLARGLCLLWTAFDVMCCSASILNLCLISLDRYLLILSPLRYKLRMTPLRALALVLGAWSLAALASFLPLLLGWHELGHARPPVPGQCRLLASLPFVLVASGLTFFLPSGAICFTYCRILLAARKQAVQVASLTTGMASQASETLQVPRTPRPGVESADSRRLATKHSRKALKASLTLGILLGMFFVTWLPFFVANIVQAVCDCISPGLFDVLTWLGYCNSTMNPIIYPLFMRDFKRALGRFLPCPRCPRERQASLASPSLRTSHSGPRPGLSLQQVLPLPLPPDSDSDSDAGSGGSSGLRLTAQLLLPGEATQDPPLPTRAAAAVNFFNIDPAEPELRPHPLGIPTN
Chain of Serine/threonine-protein kinase Nek7 (Homo sapiens) (Q8TDX7 whole entry, looked up): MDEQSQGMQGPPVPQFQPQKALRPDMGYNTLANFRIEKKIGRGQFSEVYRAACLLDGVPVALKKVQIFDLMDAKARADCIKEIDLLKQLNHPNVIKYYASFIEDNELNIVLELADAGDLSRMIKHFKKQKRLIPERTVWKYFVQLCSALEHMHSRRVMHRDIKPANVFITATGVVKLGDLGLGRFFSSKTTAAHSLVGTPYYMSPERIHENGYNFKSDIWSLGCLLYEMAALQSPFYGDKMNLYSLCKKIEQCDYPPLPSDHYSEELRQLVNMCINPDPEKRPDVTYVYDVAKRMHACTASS
Chain of Mitogen-activated protein kinase kinase kinase 14 (Homo sapiens) (Q99558 whole entry, looked up): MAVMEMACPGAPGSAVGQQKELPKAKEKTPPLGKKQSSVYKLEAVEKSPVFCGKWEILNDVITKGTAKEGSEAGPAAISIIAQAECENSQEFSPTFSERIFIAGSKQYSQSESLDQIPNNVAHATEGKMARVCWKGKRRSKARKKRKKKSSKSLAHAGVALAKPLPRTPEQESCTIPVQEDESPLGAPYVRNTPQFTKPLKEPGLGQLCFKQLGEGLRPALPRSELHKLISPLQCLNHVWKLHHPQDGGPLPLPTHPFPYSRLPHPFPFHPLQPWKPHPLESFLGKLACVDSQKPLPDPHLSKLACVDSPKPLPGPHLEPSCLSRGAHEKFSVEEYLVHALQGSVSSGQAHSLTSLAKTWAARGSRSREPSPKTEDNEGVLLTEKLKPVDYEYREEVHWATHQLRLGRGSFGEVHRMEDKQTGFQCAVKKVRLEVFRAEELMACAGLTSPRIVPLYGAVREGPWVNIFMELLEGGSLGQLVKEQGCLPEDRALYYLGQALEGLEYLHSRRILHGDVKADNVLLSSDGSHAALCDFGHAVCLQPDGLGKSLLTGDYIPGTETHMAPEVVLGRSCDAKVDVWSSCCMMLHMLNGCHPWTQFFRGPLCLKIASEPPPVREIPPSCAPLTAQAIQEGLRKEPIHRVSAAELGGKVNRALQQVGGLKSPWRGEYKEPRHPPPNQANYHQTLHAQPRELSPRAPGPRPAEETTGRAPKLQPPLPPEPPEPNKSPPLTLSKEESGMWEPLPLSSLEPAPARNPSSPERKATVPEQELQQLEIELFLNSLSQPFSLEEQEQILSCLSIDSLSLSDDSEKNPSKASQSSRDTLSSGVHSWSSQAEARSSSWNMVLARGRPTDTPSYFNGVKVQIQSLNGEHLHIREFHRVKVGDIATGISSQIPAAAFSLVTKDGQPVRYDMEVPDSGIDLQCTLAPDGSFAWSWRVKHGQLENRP

Structure (SMILES): CN(C)C/C=C/C(=O)Nc1ccc(C(=O)N2CCCC(Nc3ncc(Cl)c(-c4c[nH]c5ccccc45)n3)C2)cc1 (centres undefined)
% of control [1]: 72%
% of control [2]: 96%
% of control [3]: 100%

Structure (SMILES): Nc1cnc(N2CCc3cc(S(=O)(=O)Nc4c(F)cc(Cl)cc4F)cc(N4CCCC4=O)c32)nc1 [TP-020n]
% of inhibition [4]: -26.7%

Structure (SMILES): CNC(=O)Nc1ccc(-c2nc(N3CC4CCC(C3)O4)c3cnn(C4CCC5(CC4)OCCO5)c3n2)cc1
% of control [5]: 85%

% of inhibition [6]: 2%
Structure (SMILES): CC[C@@H]1[C@H](F)C(=O)N[C@@H]1COc1nccc2cc(C(N)=O)c(OC)cc12 [ZIMLOVISERTIB]

Structure (SMILES): COc1cc(N(C)c2ccnc3ccc(C(F)(F)F)cc23)cc(OC)c1OC
% binding [7]: 92%

Structure (SMILES): COc1cc(Nc2nc(C)cc(-c3cnn4nc(OC)ccc34)n2)cc(C(F)(F)F)c1
% of control [8]: 100%

IC50 [9]: 0.124 µM
Structure (SMILES): CCc1ccccc1C(=O)Nc1n[nH]c2c(C)c(F)c(C3C(C#N)=C(C)N(C)C(C)=C3C#N)cc12 [BAY-3827]
